{"source": "paper PMC6628435", "about": "“Chemical Synthesis, Proper Folding, Nav Channel Selectivity Profile and Analgesic Properties of the Spider Peptide Phlotoxin 1” (Toxins, 2019)", "system": "Nav1.1/β1", "assay": "Two-electrode voltage-clamp on Xenopus laevis oocytes expressing Nav1.1/β1", "format": "cell-based", "conditions": "1 µM; voltage of maximum sodium influx, holding −90 mV; oocytes TEVC; n ≥ 3", "from_the_text": "Using the two-electrode voltage-clamp technique on Xenopus laevis oocytes, the effect of PhlTx1 was also compared on eight different cloned vertebrate Nav channels co-expressed with the β1 subunit (Nav1.1-1.8/β1) and on the neuronal insect Nav channel, para, co-expressed with the tipE subunit (Figure 3 and Figure 4). […] Normalized current-voltage relationships (I-V curve) of Nav1.2/β1 and Nav1.3/β1 channels seemed to be shifted towards more negative potentials when PhlTx1 was applied, but shifts were not statistically significant […] (Figure 4). The activation phase of the other studied Nav channel subtypes was not affected. No obvious alteration in channel availability was observed, except a 5-mV negative shift for Nav1.3/β1, although that was also non-significant (p > 0.05).\nFigure 4 1 µM of PhlTx1 was tested on Nav1.1/β1, Nav1.2/β1, Nav1.3/β1, Nav1.4/β1, Nav1.5/β1, Nav1.6/β1, Nav1.8/β1 and para/tipE (n ≥ 3). Left column: current traces were evoked by a 50-ms depolarization to the voltage of maximum sodium influx, depending on the Nav studied, from a holding potential of −90 mV. At 1 µM PhlTx1, all studied Nav channels, except Nav1.4/β1, were blocked for about 10% (no toxin: *). The current of Nav1.4/β1 was reduced for about 35 ± 5%. Middle column: normalized I-V curves reveal no significant shift of the activation voltage (p > 0.05). […]", "note": "Bridge positions count the residues as written; N and C are the ends. Peptide text beside a SMILES is read from it."}
{"molecule": "CC(C)C[C@@H]1NC(=O)[C@@H](NC(=O)[C@H](C)N)CSSC[C@@H]2NC(=O)[C@@H]3CSSC[C@@H](C(=O)N[C@@H](CCCNC(=N)N)C(=O)N[C@@H](Cc4ccc(O)cc4)C(=O)N[C@@H](CCCCN)C(=O)N[C@@H](CC(C)C)C(=O)N[C@@H](Cc4ccccc4)C(=O)O)NC(=O)[C@H](Cc4c[nH]c5ccccc45)NC(=O)[C@@H]4CCCN4C(=O)[C@H](Cc4ccc(O)cc4)NC(=O)[C@H](CCCCN)NC(=O)[C@H](Cc4c[nH]c5ccccc45)NC(=O)[C@H](CCC(=O)O)NC(=O)[C@H](CSSC[C@H](NC(=O)[C@H](CO)NC(=O)[C@H](CC(=O)O)NC(=O)[C@H](Cc4c[nH]c5ccccc45)NC(=O)[C@H](CCC(N)=O)NC(=O)CNC1=O)C(=O)N[C@@H](CC(=O)O)C(=O)N1CCC[C@H]1C(=O)N[C@@H](CCCCN)C(=O)N[C@@H](C)C(=O)N[C@@H](CO)C(=O)N[C@@H](CCCCN)C(=O)N3)NC(=O)[C@H](C)NC(=O)[C@H](Cc1ccc(O)cc1)NC(=O)[C@H](CC(N)=O)NC(=O)[C@@H]1CCCN1C2=O", "note": "[PhlTx1, Phlotoxin-1] (H-ACLGQWDSCDPKASKCCPNYACEWKYPWCRYKLF-OH; disulfide 2-17, 9-22, 16-29; N-terminus and C-terminus assumed)", "values": [{"measurement": "block of sodium current", "value": "about 10%"}]}
